Assay results: patent publication US8835632B2, “Methods to increase the photostability of dyes” (The University of North Carolina at Chapel Hill, priority 2007, dated 2014)

Columns and labels:
Type in all cases: physicochemical
[1] = Methylene Blue-sensitized photobleaching (reactivity of the dyes with singlet oxygen); details: methanol, [dye]=[Methylene Blue]=3.33 μM, filtered light λ>630 nm, 40 min
Method: The reactivity of the dyes with singlet oxygen also was examined to confirm that the cyano substituent group affected photobleaching mediated by singlet oxygen. Singlet oxygen was generated using the photosensitizer Methylene Blue (MB), which has a high quantum yield for singlet oxygen production and allows singlet oxygen to be introduced into the system without excitation of the merocyanine dye. See Murov and Carmichael, Handbook of Photochemistry, 2nd ed.; Dekker: New York (1993).
15 mL of a methanol solution containing dye (3.33 μM) and Methylene Blue (3.33 μM) were placed in a 20-mL Borosilicate Glass Scintillation Vial (Fisher Scientific). The vial was illuminated with the light of a 90 W halogen reflector lamp (120 V, 1280 Lumens, 12 Degree Beam Spread). […] The length of the filtering solution was 1.0 cm. The distance between the vial and the lamp was 11.0 cm. A fan (120 V, 150 mm)) was used to cool the vial. At selected time intervals a sample was removed and the sample absorbance spectrum was obtained on a Hewlett-Packard 8453 diode array spectrophotometer (Agilent, Technologies, Inc.). Rate constants of dye photobleaching were obtained from a plot of ln(A) vs. time (see Table 5).
Again, without wishing to be bound to any one particular theory, the greater reactivity of S-SO vs. I-SO toward singlet oxygen can be attributed to the greater electron donating capacity of the benzothiazole moiety relative to the indolenine ring system.

[2] = Absorption and fluorescence spectra, extinction coefficient, fluorescence quantum yield
Method: Absorption spectra were recorded on a Hewlett-Packard 8453 diode array UV-Vis spectrophotometer (Agilent Technologies, Inc., Santa Clara, Calif.), and fluorescence measurements were taken on a SPEX® Fluorolog 2 spectrofluorometer (HORIBA Jobin Yvon, Inc., Edison, N.J.). Melting points are not corrected. NMR spectra were obtained on a Varian Mercury 300 MHz (Varian, Inc., Palo Alto, Calif.) or on a Bruker 300 MHz DRX 300 spectrometer (Bruker Biospin Corp., Billerica, Mass.). Mass spectra were obtained on a Hewlett-Packard 1100 high-performance liquid chromatograph equipped with an 1100 mass selective detector (MS-ESI) (Agilent Technologies, Inc.).
With decreasing solvent polarity, the absorption maximum of dyes 1a-b, 2a-d shifted to longer wavelengths, and the intensity of the transition increased (Table 10, FIG. 11).
The SCRF/VSCRF predicted emission energies and the solute dipole moments before and after the vertical emission process are given in Table 16. The dipole moments of AI-BA(4) and AI-SO(4) are further decreased on the S1 surface after geometry relaxation (in MeOH solution), and then increased during the S1→S0 transition. This observation is consistent with the blue shifts of the emission bands of AI-BA(4) and AI-SO(4) with increasing solvent polarity from C6H6 to MeOH. By contrast, the dipole moment of I-SO further decreases after S1 state geometry relaxation, and then decreases during the vertical emission process. This observation also is in agreement with the red shift of the I-SO emission band with increasing solvent polarity from C6H6 to MeOH. Similarly to the absorption case, a negligible red shift (ΔEem=0.017 eV) was predicted for the emission band of I-TBA with increasing solvent polarity. A small red shift from C6H6 to DMF (with ΔEem=0.020 eV, or Δλmax=6 nm) is observed. The nearly equal emission energy observed in C6H6 and MeOH can again result in the explicit interactions between the solute and solvent molecules.

[3] = Photobleaching under constant illumination from a halogen tungsten lamp filtered through glass
Excerpt: The photostability of dyes can be important for applications in living cells. The mechanism of photobleaching for merocyanines of varying structure has been examined See Toutchkine et al., J. Am. Chem. Soc. 125:4132-4145 (2003). The photostability of the presently disclosed dyes was characterized by exposing them to constant illumination from a halogen tungsten lamp filtered through glass. This broad spectrum light source provided essentially equal intensity throughout the spectral range where the dyes absorb and where they would be irradiated in vivo (about 600 nm to about 650 nm).

[4] = Relative rate of reaction with chemically generated singlet oxygen in DMSO; details: 2.5 mM, 1O2 from 1,4-dimethylnaphtalene-1,4-endoperoxide
Method: The bleaching rates for the dyes differed by two orders of magnitude. The relative rate constants kr (rel) for product formation during reaction with singlet oxygen were measured by comparing the percent conversions for dyes dissolved in DMSO containing a fixed amount of ^1O2 (2.5 mM solutions; ^1O2 generated by decomposition of 1,4-dimethylnaphtalene-1,4-endoperoxide). The rates were generally higher for dyes with a polar ground state (1a, 2a, 2b, 2d) than for the dyes with their ground state at the “cyanine limit” (3, 4). […] Olefins without allylic hydrogens react with singlet oxygen to form dioxetanes. Dioxetanes are unstable and decompose, to form two carbonyl compounds.

[5] = MeOH, with respect to standard I-TBA in MeOH

CN1/C(=C(C#N)/C=C/C=C2/C(=O)c3ccccc3S2(=O)=O)C(C)(C)c2ccccc21 [I-SO-CN, (2Z,3E,5Z)-5-(1,1-dioxido-3-oxo-1-benzothiophen-2(3H)-ylidene)-2-(1,3,3-trimethyl-1,3-dihydro-2H-indol-2-ylidene)pent-3-enenitrile]
Bleaching on irradiation of Methylene Blue [1]: 0%
Absorbance λmax ([2]; Butanol (BuOH)): 527 nm
Emission λmax ([2]; Butanol (BuOH)): 594 nm
Extinction coefficient ε ([2]; Butanol (BuOH)): 56000
Fluorescence quantum yield Φ ([2]; Butanol (BuOH)): 0.04
Absorbance λmax ([2]; Methanol (MeOH)): 528 nm
Emission λmax ([2]; Methanol (MeOH)): 595 nm
Extinction coefficient ε ([2]; Methanol (MeOH)): 55000
Fluorescence quantum yield Φ ([2]; Methanol (MeOH)): 0.03

C[n+]1ccc(/C=C/C=C/C2=C([O-])c3ccccc3S2(=O)=O)cc1 [P-SO(4)]
kph * 10^6 (absolute rate of photobleaching) ([3]; MeOH): 28 s^−1
kph(rel) (relative rate of photobleaching) [3, 5]: 82
kr(rel) (relative rate constants for product formation during reaction with singlet oxygen produced chemically) [4]: 60.3
Observed absorption (ε) ([2]; Table 10, BuOH): (64000)
Observed absorption λmax ([2]; Table 10, BuOH): 593 nm
Observed absorption (ε) ([2]; Table 10, C6H6): (178000)
Observed absorption λmax ([2]; Table 10, C6H6): 644 nm
Observed absorption (ε) ([2]; Table 10, CH2Cl2): (187000)
Observed absorption λmax ([2]; Table 10, CH2Cl2): 629 nm
Observed absorption (ε) ([2]; Table 10, CH3CN): (93000)
Observed absorption λmax ([2]; Table 10, CH3CN): 596 nm
Observed absorption (ε) ([2]; Table 10, DMF): (99000)
Observed absorption λmax ([2]; Table 10, DMF): 604 nm
Observed absorption (ε) ([2]; Table 10, DMSO): (77000)
Observed absorption λmax ([2]; Table 10, DMSO): 599 nm
Observed absorption (ε) ([2]; Table 10, EtOH): (61000)
Observed absorption λmax ([2]; Table 10, EtOH): 557 nm
Observed absorption (ε) ([2]; Table 10, MeOH): (54000)
Observed absorption λmax ([2]; Table 10, MeOH): 580 nm
Observed absorption (ε) ([2]; Table 10, OcOH): (80000)
Observed absorption λmax ([2]; Table 10, OcOH): 612 nm
Observed absorption (ε) ([2]; Table 10, i-PrOH): (68000)
Observed absorption λmax ([2]; Table 10, i-PrOH): 597 nm
Observed emission (Φ) ([2]; Table 15, BuOH): 0.048
Observed emission λmax ([2]; Table 15, BuOH): 640 nm
Observed emission (Φ) ([2]; Table 15, C6H6): 0.002
Observed emission λmax ([2]; Table 15, C6H6): 656 nm
Observed emission (Φ) ([2]; Table 15, CH2Cl2): 0.082
Observed emission λmax ([2]; Table 15, CH2Cl2): 650 nm
Observed emission (Φ) ([2]; Table 15, CH3CN): 0.067
Observed emission λmax ([2]; Table 15, CH3CN): 632 nm
Observed emission (Φ) ([2]; Table 15, DMF): 0.10
Observed emission λmax ([2]; Table 15, DMF): 635 nm
Observed emission (Φ) ([2]; Table 15, DMSO): 0.067
Observed emission λmax ([2]; Table 15, DMSO): 636 nm
Observed emission (Φ) ([2]; Table 15, EtOH): 0.029
Observed emission λmax ([2]; Table 15, EtOH): 634 nm
Observed emission (Φ) ([2]; Table 15, MeOH): 0.018
Observed emission λmax ([2]; Table 15, MeOH): 630 nm
Observed emission (Φ) ([2]; Table 15, OcOH): 0.082
Observed emission λmax ([2]; Table 15, OcOH): 644 nm
Observed emission (Φ) ([2]; Table 15, i-PrOH): 0.049
Observed emission λmax ([2]; Table 15, i-PrOH): 636 nm

CC1(C)c2ccccc2-[n+]2ccc(/C=C/C=C/C3=C(O)c4ccccc4S3(=O)=O)cc21 [AI-SO]
kph * 10^6 (absolute rate of photobleaching) ([3]; C6H6): 128 s^−1
kph(rel) (relative rate of photobleaching) ([3]; C6H6, with respect to standard I-SO in C6H6): 115
kph * 10^6 (absolute rate of photobleaching) ([3]; MeOH): 89 s^−1
kph(rel) (relative rate of photobleaching) [3, 5]: 261
kr(rel) (relative rate constants for product formation during reaction with singlet oxygen produced chemically) [4]: 59.2
Absorbance λmax ([2]; Butanol (BuOH)): 650 nm
Emission λmax ([2]; Butanol (BuOH)): 675 nm
Extinction coefficient ε ([2]; Butanol (BuOH)): 118000
Fluorescence quantum yield Φ ([2]; Butanol (BuOH)): 0.92
Absorption energy Eabs Exp ([2]; C6H6): 1.826 eV
Emission energy Eem Exp ([2]; C6H6): 1.794 eV
Absorption energy Eabs Exp ([2]; MeOH): 2.120 eV
Emission energy Eem Exp ([2]; MeOH): 1.865 eV
Absorbance λmax ([2]; Methanol (MeOH)): 610 nm
Emission λmax ([2]; Methanol (MeOH)): 654 nm
Extinction coefficient ε ([2]; Methanol (MeOH)): 65000
Fluorescence quantum yield Φ ([2]; Methanol (MeOH)): 0.54
Observed absorption (ε) ([2]; Table 10, BuOH): (118000)
Observed absorption λmax ([2]; Table 10, BuOH): 650 nm
Observed absorption (ε) ([2]; Table 10, C6H6): (240000)
Observed absorption λmax ([2]; Table 10, C6H6): 679 nm
Observed absorption (ε) ([2]; Table 10, CH2Cl2): (278000)
Observed absorption λmax ([2]; Table 10, CH2Cl2): 667 nm
Observed absorption (ε) ([2]; Table 10, CH3CN): (142000)
Observed absorption λmax ([2]; Table 10, CH3CN): 642 nm
Observed absorption (ε) ([2]; Table 10, DMF): (154000)
Observed absorption λmax ([2]; Table 10, DMF): 651 nm
Observed absorption (ε) ([2]; Table 10, DMSO): (118000)
Observed absorption λmax ([2]; Table 10, DMSO): 644 nm
Observed absorption (ε) ([2]; Table 10, EtOH): (83000)
Observed absorption λmax ([2]; Table 10, EtOH): 636 nm
Observed absorption (ε) ([2]; Table 10, MeOH): (65000)
Observed absorption λmax ([2]; Table 10, MeOH): 610 nm
Observed absorption (ε) ([2]; Table 10, OcOH): (150000)
Observed absorption λmax ([2]; Table 10, OcOH): 660 nm
Observed absorption (ε) ([2]; Table 10, i-PrOH): (122000)
Observed absorption λmax ([2]; Table 10, i-PrOH): 648 nm
Absorption Exp wavelength ([2]; Table 12, C6H6): 679 nm
Absorption Exp wavelength ([2]; Table 12, MeOH): 585 nm
Observed emission (Φ) ([2]; Table 15, BuOH): 0.92
Observed emission λmax ([2]; Table 15, BuOH): 675 nm
Observed emission (Φ) ([2]; Table 15, C6H6): 0.19
Observed emission λmax ([2]; Table 15, C6H6): 691 nm
Observed emission (Φ) ([2]; Table 15, CH2Cl2): 0.54
Observed emission λmax ([2]; Table 15, CH2Cl2): 681 nm
Observed emission (Φ) ([2]; Table 15, CH3CN): 0.75
Observed emission λmax ([2]; Table 15, CH3CN): 667 nm
Observed emission λmax ([2]; Table 15, DMF): 673 nm
Observed emission λmax ([2]; Table 15, DMSO): 673 nm
Observed emission (Φ) ([2]; Table 15, EtOH): 0.82
Observed emission λmax ([2]; Table 15, EtOH): 671 nm
Observed emission (Φ) ([2]; Table 15, MeOH): 0.54
Observed emission λmax ([2]; Table 15, MeOH): 665 nm
Observed emission (Φ) ([2]; Table 15, OcOH): 0.88
Observed emission λmax ([2]; Table 15, OcOH): 679 nm
Observed emission (Φ) ([2]; Table 15, i-PrOH): 0.96
Observed emission λmax ([2]; Table 15, i-PrOH): 673 nm
